Source: patent US9708314B2, “Heterocyclic amide compound” (NISSAN CHEMICAL INDUSTRIES, LTD., priority 2013, dated 2017)

Experiments:
Assay type in all cases: in vivo
Monochoria vaginalis [1] = experiment: Test Example 1: herbicidal activity, application before weed generation in submerged conditions; details: Application herbicide amount 320 g/ha; Seventeenth Table
How it was run: (§1)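 Rating, on a six-step scale from almost no effect (0) to almost completely withered (5), was made three weeks after pre-emergence treatment. Treatment was surface application to flooded pots at g/ha rates, with plants kept at 25° C. to 30° C.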

Scirpus juncoides [2] = experiment: as above; details: Application herbicide amount 320 g/ha; Seventeenth Table
How it was run: as §1

[3] = tested on: Echinochloa oryzacola Vasing.; experiment: as above; details: Application herbicide amount 320 g/ha; Seventeenth Table
How it was run: as §1

Triticum aestivum = experiment: Test Example 4: effect on crop by application to foliage (diluvial soil, plastic box); details: Application herbicide amount 320 g/ha; effect on crop
How it was run: (§2)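 Emulsion-formulated compound, diluted to a predetermined g/ha dose, applied by small sprayer to leaves and stems of 14-day-old seedlings grown in sterilized diluvial soil. Effect rated on 0–5 herbicidal-ratio scale three weeks on.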

Monochoria vaginalis [4] = experiment: Test Example 2: herbicidal activity, application during weed generation in submerged conditions; details: Eighteenth Table; application herbicide amount 320 g/ha
How it was run: (§3)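 Post-emergence application under submerged conditions: water-diluted emulsion dosed onto the water surface (g/ha) when weeds reach one- to two-leaf stage. Soil flooded to 4 cm; greenhouse 25–30 °C. Herbicidal ratio graded in six classes, 0 (≤5%) to 5 (≥90%), at three weeks.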

Scirpus juncoides [5] = experiment: as above; details: Eighteenth Table; application herbicide amount 320 g/ha
How it was run: as §3

[6] = tested on: Echinochloa oryzacola Vasing.; experiment: as above; details: Eighteenth Table; application herbicide amount 320 g/ha
How it was run: as §3

[7] = tested on: Echinochloa crus-galli var. crus-galli; experiment: Test Example 4: herbicidal effect by application to foliage (diluvial soil, plastic box); details: Application herbicide amount 320 g/ha
How it was run: as §2

Chenopodium album = experiment: as above; details: Application herbicide amount 320 g/ha
How it was run: as §2

Compound | C: Monochoria vaginalis (herbicidal effect grade) (Monochoria vaginalis [1]) | B: Scirpus juncoides (herbicidal effect grade) (Scirpus juncoides [2]) | A: Echinochloa oryzicola Vasing. (herbicidal effect grade) [3] | e (Triticum aestivum) | C (Monochoria vaginalis) herbicidal ratio grade (Monochoria vaginalis [4]) | B (Scirpus juncoides) herbicidal ratio grade (Scirpus juncoides [5]) | A (Echinochloa oryzicola Vasing.) herbicidal ratio grade [6] | H [7] | O (Chenopodium album)
CSCCc1nnc2c(C(=O)Nc3nnc(C)o3)ccc(C(F)(F)F)n12 [1-083] | 3 (Herbicidal ratio of 40% or more and less than 70%) | 3 (Herbicidal ratio of 40% or more and less than 70%) | 2 (Herbicidal ratio of 20% or more and less than 40%) | 1 (Herbicidal ratio of 5% or more and less than 20%) | 2 (Herbicidal ratio of 20% or more and less than 40%) | 2 (Herbicidal ratio of 20% or more and less than 40%) | 2 (Herbicidal ratio of 20% or more and less than 40%) | 5 (Herbicidal ratio of 90% or more (almost completely withered)) | 5 (Herbicidal ratio of 90% or more (almost completely withered))
Cc1nnc(NC(=O)c2ccc(C(F)(F)F)n3c(CC[S+](C)[O-])nnc23)o1 (stereo not drawn) [1-084] | 2 (Herbicidal ratio of 20% or more and less than 40%) | 3 (Herbicidal ratio of 40% or more and less than 70%) | 2 (Herbicidal ratio of 20% or more and less than 40%) | 0 (Herbicidal ratio of 5% or less (almost no effect)) | 0 (Herbicidal ratio of 5% or less (almost no effect)) | 1 (Herbicidal ratio of 5% or more and less than 20%) | 2 (Herbicidal ratio of 20% or more and less than 40%) | 5 (Herbicidal ratio of 90% or more (almost completely withered)) | 5 (Herbicidal ratio of 90% or more (almost completely withered))
Cc1nnc(NC(=O)c2ccc(C(F)(F)F)n3c(CCS(C)(=O)=O)nnc23)o1 [1-085] | 3 (Herbicidal ratio of 40% or more and less than 70%) | 4 (Herbicidal ratio of 70% or more and less than 90%) | 3 (Herbicidal ratio of 40% or more and less than 70%) | 3 (Herbicidal ratio of 40% or more and less than 70%) | 2 (Herbicidal ratio of 20% or more and less than 40%) | 2 (Herbicidal ratio of 20% or more and less than 40%) | 3 (Herbicidal ratio of 40% or more and less than 70%) | 5 (Herbicidal ratio of 90% or more (almost completely withered)) | 5 (Herbicidal ratio of 90% or more (almost completely withered))
Cc1nnc(NC(=O)c2ccc(C(F)(F)F)n3c(N(C)c4ccccc4)nnc23)o1 [1-086] | 4 (Herbicidal ratio of 70% or more and less than 90%) | 4 (Herbicidal ratio of 70% or more and less than 90%) | 5 (Herbicidal ratio of 90% or more (almost completely withered)) | 0 (Herbicidal ratio of 5% or less (almost no effect)) | 4 (Herbicidal ratio of 70% or more and less than 90%) | 4 (Herbicidal ratio of 70% or more and less than 90%) | 4 (Herbicidal ratio of 70% or more and less than 90%) | 5 (Herbicidal ratio of 90% or more (almost completely withered)) | 5 (Herbicidal ratio of 90% or more (almost completely withered))
Cc1nnc(NC(=O)c2ccc(C(F)(F)F)n3c(NC(C)C)nnc23)o1 [1-090] | 2 (Herbicidal ratio of 20% or more and less than 40%) | 4 (Herbicidal ratio of 70% or more and less than 90%) | 3 (Herbicidal ratio of 40% or more and less than 70%) | 0 (Herbicidal ratio of 5% or less (almost no effect)) | 3 (Herbicidal ratio of 40% or more and less than 70%) | 1 (Herbicidal ratio of 5% or more and less than 20%) | 2 (Herbicidal ratio of 20% or more and less than 40%) | 5 (Herbicidal ratio of 90% or more (almost completely withered)) | 5 (Herbicidal ratio of 90% or more (almost completely withered))
CC(C)Sc1nnc2c(C(=O)Nc3nnco3)ccc(C(F)(F)F)n12 [1-091] | 5 (Herbicidal ratio of 90% or more (almost completely withered)) | 5 (Herbicidal ratio of 90% or more (almost completely withered)) | 5 (Herbicidal ratio of 90% or more (almost completely withered)) | 3 (Herbicidal ratio of 40% or more and less than 70%) | 5 (Herbicidal ratio of 90% or more (almost completely withered)) | 5 (Herbicidal ratio of 90% or more (almost completely withered)) | 5 (Herbicidal ratio of 90% or more (almost completely withered)) | 5 (Herbicidal ratio of 90% or more (almost completely withered)) | 5 (Herbicidal ratio of 90% or more (almost completely withered))
CCC[S+]([O-])c1nnc2c(C(=O)Nc3nnc(C)o3)ccc(C(F)(F)F)n12 (stereo not drawn) [1-092] | 4 (Herbicidal ratio of 70% or more and less than 90%) | 5 (Herbicidal ratio of 90% or more (almost completely withered)) | 5 (Herbicidal ratio of 90% or more (almost completely withered)) | 0 (Herbicidal ratio of 5% or less (almost no effect)) | 3 (Herbicidal ratio of 40% or more and less than 70%) | 4 (Herbicidal ratio of 70% or more and less than 90%) | 4 (Herbicidal ratio of 70% or more and less than 90%) | 5 (Herbicidal ratio of 90% or more (almost completely withered)) | 5 (Herbicidal ratio of 90% or more (almost completely withered))
Cc1nnc(NC(=O)c2ccc(C(F)(F)F)n3c(SCC(C)C)nnc23)o1 [1-093] | 3 (Herbicidal ratio of 40% or more and less than 70%) | 4 (Herbicidal ratio of 70% or more and less than 90%) | 5 (Herbicidal ratio of 90% or more (almost completely withered)) | 0 (Herbicidal ratio of 5% or less (almost no effect)) | 3 (Herbicidal ratio of 40% or more and less than 70%) | 3 (Herbicidal ratio of 40% or more and less than 70%) | 3 (Herbicidal ratio of 40% or more and less than 70%) | 5 (Herbicidal ratio of 90% or more (almost completely withered)) | 5 (Herbicidal ratio of 90% or more (almost completely withered))
CCC(C)Sc1nnc2c(C(=O)Nc3nnc(C)o3)ccc(C(F)(F)F)n12 (stereo not drawn) [1-094] | 3 (Herbicidal ratio of 40% or more and less than 70%) | 5 (Herbicidal ratio of 90% or more (almost completely withered)) | 5 (Herbicidal ratio of 90% or more (almost completely withered)) | 1 (Herbicidal ratio of 5% or more and less than 20%) | 3 (Herbicidal ratio of 40% or more and less than 70%) | 3 (Herbicidal ratio of 40% or more and less than 70%) | 4 (Herbicidal ratio of 70% or more and less than 90%) | 5 (Herbicidal ratio of 90% or more (almost completely withered)) | 5 (Herbicidal ratio of 90% or more (almost completely withered))
Cc1nnc(NC(=O)c2ccc(C(F)(F)F)n3c(SC(C)(C)C)nnc23)o1 [1-095] | 5 (Herbicidal ratio of 90% or more (almost completely withered)) | 5 (Herbicidal ratio of 90% or more (almost completely withered)) | 5 (Herbicidal ratio of 90% or more (almost completely withered)) | 1 (Herbicidal ratio of 5% or more and less than 20%) | 4 (Herbicidal ratio of 70% or more and less than 90%) | 5 (Herbicidal ratio of 90% or more (almost completely withered)) | 4 (Herbicidal ratio of 70% or more and less than 90%) | 5 (Herbicidal ratio of 90% or more (almost completely withered)) | 5 (Herbicidal ratio of 90% or more (almost completely withered))
